Values quoted from earlier work, collected in patent publication US8771310B2, “Anti-no-reflow guide wire for vascular interventional procedures” (Adenopaint, LLC, priority 2007, dated 2014).

How the values were obtained:
[1] = system: patients with STEMI; settings: large intravenous doses
[2] = system: patients with stable and unstable angina; settings: intracoronary infusion or bolus via guide catheter prior to procedure; 24 hours after PCI
[3] = system: patients undergoing PCI; settings: preloading 600 mg
[4] = system: patients undergoing PCI of SVGs; settings: PCI of degenerated SVGs

Molecule: Nc1ncnc2c1ncn2[C@@H]1O[C@H](CO)[C@@H](O)[C@H]1O [adenosine]
- cardioprotection with reperfusion therapies [1]: cardioprotective affects
- rise in CK-MB and Troponin after PCI [2]: significantly attenuated the rise

Molecule: COC(=O)[C@H](c1ccccc1Cl)N1CCc2sccc2C1 [clopidogrel]
- cell necrosis after PCI [3]: reduced cell necrosis

B1: abciximab: IIb/IIIa platelet inhibitor (antibody, chains of the INN, looked up, V domains shown)
VH: EVQLQQSGTVLARPGASVKMSCEASGYTFTNYWMHWVKQRPGQGLEWIGAIYPGNSDTSYIQKFKGKAKLTAVTSTTSVYMELSSLTNEDSAVYYCTLYDGYYVFAYWGQGTLVTVSA
VL: EIVLTQSPVTLSVTPGDSVSLSCRASRDISNNLHWFQQTSHESPRLLIKYASQSMSGIPSRFSGSGSGTDFTLSINSVETEDFGMYFCQQTNSWPYTFGGGTKLEIK
modifications: Fab
- MACE at thirty days [4]: failed to reduce MACE at thirty days
